In patent publication US20160177259A1, “[…]” (Evonik Degussa GmbH, priority 2014, published 2016):

Test system: Clostridium ljungdahlii
Test: Autotrophic production of ethanol and acetate in carbonate buffer on synthesis gas with varying L-cysteine HCl (Example 1)
Type: cell-based
Experimental: For the production, anaerobic carbonate buffer (adjusted with KOH 1.4 g/L) was used. The only addition to the buffer was L-cysteine HCl at different concentrations.
For identical autotrophic productions, 500 mL septum bottles were filled with 100 mL carbonate buffer and shaken at 150 min^−1 in an open shaking water bath shaker Innova 3100 by New Brunswick Scientific. The reactions were carried out at 37° C. with manual control of the pH. Once the pH dropped below 5.5, KOH was replenished from a stock solution of 140 g/L. In the present experiments the pH in both reactors were checked at the following points in time 50.3 h, 73.3 h and corrected by the addition of each 1.4 g/L KOH manually.
The reactors were inoculated with a synthesis gas mixture of 67% H2 and 33% CO2 and pressure of 0.8 bar applied. To replenish the depleted gas, the gas above the reactors was replaced once a day and again the pressure brought to 0.8 bars.
The reactor was started by seeding autotrophic grown cells at an OD of 0.2. The preculture was carried out continuously in a 1 L bottle with 500 mL complex medium. The complex medium consisting of 1 g/lNH4Cl, 0.1 g/l KCl, 0.2 g/l MgSO4 ×7 H2O, 0.8 g/l NaCl, 0.1 g/l KH2PO4, 20 mg/l CaCl2 ×2 H2O, 20 g/l MES, 1 g/l yeast extract, 0.4 g/L L-Cysteine-HC1, 20 mg/l nitrilotriacetic acid, 10 mg/l MnSO4×H2O, 8 mg/l (NH4)2Fe(SO4)2×6 H2O, 2 mg/l CoCl2×6 H2O, 2 mg/l ZnSO4 33 7 H2O, 0.2 mg/l CuCl 2 33 2 H2O, 0.2 mg/l Na2MoO4×2 H2O, 0.2 mg/l NiCl2×6 H2O, 0.2 mg/l Na2SeO4, 0.2 mg/l Na2WO4×2 H2O, 20 μg/l d-Biotin, 20 μg/l folic acid, 100 μg/l pyridoxine HCl, 50μg/l thiamine-HCl×H2O, 50 μg l of riboflavin, 50 μg/l nicotinic acid, 50 μg/l Ca-pantothenate, 1 μg/l vitamin B12, 50μg/l p-aminobenzoate, 50 μg/l lipoic acid. The culture was then gassed continuously with synthesis gas (67% H2, 33% CO2) at a flow rate of 3 l/h over a filter with pore size 10 microns. The cells were in late log phase growth at an OD of 0.37 and where anaerobically centrifuged (4500 rpm, 4300 g, 20° C., 10 min). The supernatant was discarded and the cell pellet resuspended in 10 ml carbonate buffer. The prepared cells were then used to inoculate the actual tests.
When sampling each 5 ml sample was removed for determination of OD600, pH and the product spectrum. The determination of the product concentration was performed using quantitative 1H-NMR spectroscopy. As an internal quantification standard sodium trimethylsilylpropionate was used (T(M)SP).

[1] = reactor 1, 0.1 g/L L-Cysteine-HCl, 150 min-1, 0.0 h
[2] = reactor 1, 0.1 g/L L-Cysteine-HCl, 150 min-1, 24.5 h
[3] = reactor 1, 0.1 g/L L-Cysteine-HCl, 150 min-1, 50.3 h
[4] = reactor 1, 0.1 g/L L-Cysteine-HCl, 150 min-1, 73.3 h
[5] = reactor 1, 0.1 g/L L-Cysteine-HCl, 150 min-1, 92.3 h
[6] = reactor 2, 0.4 g/L L-Cysteine-HCl, 150 min-1, 0.0 h
[7] = reactor 2, 0.4 g/L L-Cysteine-HCl, 150 min-1, 24.5 h
[8] = reactor 2, 0.4 g/L L-Cysteine-HCl, 150 min-1, 50.3 h
[9] = reactor 2, 0.4 g/L L-Cysteine-HCl, 150 min-1, 73.3 h
[10] = reactor 2, 0.4 g/L L-Cysteine-HCl, 150 min-1, 92.3 h

Cl.N[C@@H](CS)C(=O)O [L-Cysteine-HCl, L-cysteine hydrochloride]
concentrations of ethanol and acetate (0.1 g/L compared with 0.4 g/L L-cysteine-HCl, after 92.3 h): higher | Acetate (NMR) [1]: 13 mg/L | Ethanol (NMR) [1]: 6 mg/L | OD600 [1]: 0.25 | Acetate (NMR) [2]: 1418 mg/L | Ethanol (NMR) [2]: 19 mg/L | OD600 [2]: 0.25 | Δp [2]: 0.6 bar | Acetate (NMR) [3]: 2556 mg/L | Ethanol (NMR) [3]: 130 mg/L | OD600 [3]: 0.30 | Δp [3]: 0.6 bar | OD600 [4]: 0.30 | Δp [4]: 0.6 bar | Acetate (NMR) [5]: 6960 mg/L | Ethanol (NMR) [5]: 321 mg/L | OD600 [5]: 0.26 | Δp [5]: 0.4 bar | total gas consumption (reactor 1 with 0.1 g/L compared with reactor with 0.4 g/L L-cysteine-HCl, over 92.3 h): higher | Acetate (NMR) [6]: 15 mg/L | Ethanol (NMR) [6]: 8 mg/L | OD600 [6]: 0.24 | Acetate (NMR) [7]: 2331 mg/L | Ethanol (NMR) [7]: 27 mg/L | OD600 [7]: 0.23 | Δp [7]: 0.6 bar | Acetate (NMR) [8]: 3197 mg/L | Ethanol (NMR) [8]: 128 mg/L | OD600 [8]: 0.26 | Δp [8]: 0.5 bar | OD600 [9]: 0.22 | Δp [9]: 0.3 bar | Acetate (NMR) [10]: 5067 mg/L | Ethanol (NMR) [10]: 150 mg/L | OD600 [10]: 0.22 | Δp [10]: 0.3 bar
